Test results: US10130830B2, “Preservative systems comprising cationic surfactants” (Laboratorios Miret, S.A., priority 2005, dated 2018)
“And” between values parts separate entries of the source, which are not always exact repeats. Identical values can stand only once.

How the values were obtained:
[1] = test system: Yeast; assay: Preservative action in cosmetic products (Antimicrobial Effectiveness Testing USP 24th Edition), yeast; type: cell-based, Candida albicans
From the text: (§1) (1) Determination of Preservative Action in Cosmetic Products. […] This assay consists of the contamination of the protecting formulations with an inoculum mixture of 10^8 cfu/ml concentration, for each of the micro-organisms, and the determination of the number of viable cells in time. This inoculum mixture is composed of the following microorganisms: [table] The cosmetic composition to be analysed is divided into sterile containers with 50 g of product for each flask. Each container is inoculated with 0.5 ml of inoculum (10^8 cfu/ml). The target concentration is 10^6 cfu/ml, approximately. All the containers are kept at a temperature between 20-25° C. and are protected from light. The level of the microbial contamination is checked at 0 hours, 7 days, 14 days and 28 days. The number of colonies is evaluated by dilution in buffer peptone with the appropriate neutraliser agent of the preservative. The culture media used for counting the microorganisms are: […] (2) Determination of Preservative Action in Chicken Breast. Process of Preparation • 1. Fresh chicken breast was diced to pieces • 2. Brine (8.70% sodium chloride and 4.35% tripolyphosphate in water) was added to the fresh chicken in an amount of 11.5 g brine per 88.5 g meat in the control preparation and 11.5 g brine and 88.4 g meat in the preparations treated with preservative. • 3. Brine and meat were mixed during 15 minutes, in the preparations treated with preservative the preservative was added after 14 minutes in an amount of 0.2 g/kg. • 4. Vacuum refrigerate tumbling was made during 30 minutes. • 5. Samples were vacuum-packed in sterile bags and they were cooked at 85° C. for 30 minutes. • 6. The cooked chicken was refrigerated at 4° C. • 7. The cooked chicken was diced in irregular shapes. • 8. Then, the nuggets were stored at 10° C. in sterile vacuum-packed bags. Analysis

[2] = test system: inoculated microorganisms; assay: Preservative action in cosmetic products, overall outcome against the inoculum mixture; type: cell-based; details: Example 17, oil in water emulsion with an ionic emulsifier, 0.20 g of LAE/kg
From the text: as §1, with “Brine and meat were mixed during 15 minutes, in the preparations treated with preservative the preservative was added after 14 minutes in an amount of 0.2 g/kg. • 4. Vacuum refrigerate tumbling was made during 30 minutes. • 5. Samples were vacuum-packed in sterile bags and they were cooked at 85° C. for 30 minutes. • 6. The cooked chicken was refrigerated at 4° C. • 7. The cooked chicken was diced in irregular shapes. • 8. Then, the nuggets were stored at 10° C. in sterile vacuum-packed bags. Analysis” left out

[3] = test system: aerobic total count; assay: Preservative action in cooked chicken breast, aerobic total count; type: cell-based
Protocol: (2) Determination of Preservative Action in Chicken Breast. Process of Preparation • 1. Fresh chicken breast was diced to pieces • 2. Brine (8.70% sodium chloride and 4.35% tripolyphosphate in water) was added to the fresh chicken in an amount of 11.5 g brine per 88.5 g meat in the control preparation and 11.5 g brine and 88.4 g meat in the preparations treated with preservative. • 3. Brine and meat were mixed during 15 minutes, in the preparations treated with preservative the preservative was added after 14 minutes in an amount of 0.2 g/kg. • 4. Vacuum refrigerate tumbling was made during 30 minutes. • 5. Samples were vacuum-packed in sterile bags and they were cooked at 85° C. for 30 minutes. • 6. The cooked chicken was refrigerated at 4° C. • 7. The cooked chicken was diced in irregular shapes. • 8. Then, the nuggets were stored at 10° C. in sterile vacuum-packed bags. Analysis […] Dilutions were made in buffered peptone water. Tryptone Soya Agar was harvested with each dilution and incubated at 35° C. for 48 hours. The mean value in log cfu/g of three samples per treatment and day of analysis was calculated.

CCCCCCCCCCCC(=O)N[C@@H](CCCN=C(N)N)C(=O)OCC.Cl [LAE, ethyl ester of the lauramide of the arginine monohydrochloride]
Yeast count ([1]; Example 10, oil in water emulsion with non-ionic surfactant, 0.2 g/kg, 0 days): 5.6 log cfu/g | Yeast count ([1]; Example 10, oil in water emulsion with non-ionic surfactant, 0.2 g/kg, 7 days): 3.4 log cfu/g | Yeast count ([1]; Example 10, oil in water emulsion with non-ionic surfactant, 0.2 g/kg, 14 days): 2.6 log cfu/g | Yeast count ([1]; Example 12, bath gel, LAE 0.2 g/kg, 0 days): 4.3 log cfu/g | Yeast count ([1]; Example 12, bath gel, LAE 0.2 g/kg, 7 days): 2.8 log cfu/g | Yeast count ([1]; Example 12, bath gel, LAE 0.2 g/kg, 14 days): <2.0 log cfu/g | Yeast count ([1]; Example 15, bath gel, LAE 0.2 g/kg, 0 days): 4.3 log cfu/g | Yeast count ([1]; Example 15, bath gel, LAE 0.2 g/kg, 7 days): 3.3 log cfu/g | Yeast count ([1]; Example 15, bath gel, LAE 0.2 g/kg, 14 days): 2.6 log cfu/g | Yeast count ([1]; Example 17, oil in water emulsion with an ionic emulsifier, 0.20 g of LAE/kg, 0 days): 5.3 log cfu/g | Yeast count ([1]; Example 17, oil in water emulsion with an ionic emulsifier, 0.20 g of LAE/kg, 7 days): 3.8 log cfu/g | Yeast count ([1]; Example 17, oil in water emulsion with an ionic emulsifier, 0.20 g of LAE/kg, 14 days): 2.5 log cfu/g | Yeast count ([1]; Example 19, bath gel, 0.2 g of LAE/kg, 0 days): 4.5 log cfu/g | Yeast count ([1]; Example 19, bath gel, 0.2 g of LAE/kg, 7 days): 3.5 log cfu/g | Yeast count ([1]; Example 19, bath gel, 0.2 g of LAE/kg, 14 days): 2.3 log cfu/g | preservation outcome [2]: effectively preserved | aerobic total count, mean ([3]; Example 9, cooked chicken, 0.2 g/kg, day 0, mean of triplicate): 2.0 log cfu/g | aerobic total count ([3]; Example 9, cooked chicken, 0.2 g/kg, day 0, samples 1-3): 2.0 log cfu/g | aerobic total count, mean ([3]; Example 9, cooked chicken, 0.2 g/kg, day 7, mean of triplicate): 2.0 log cfu/g | aerobic total count ([3]; Example 9, cooked chicken, 0.2 g/kg, day 7, samples 1-3): 2.0 log cfu/g | aerobic total count, mean ([3]; Example 9, cooked chicken, 0.2 g/kg, day 14, mean of triplicate): 2.3 log cfu/g | aerobic total count ([3]; Example 9, cooked chicken, 0.2 g/kg, day 14, samples 1-3, monohydrochloride): 2.0 log cfu/g and 2.5 log cfu/g and 2.3 log cfu/g | aerobic total count, mean ([3]; Example 9, cooked chicken, 0.2 g/kg, day 21, mean of triplicate): 2.8 log cfu/g | aerobic total count ([3]; Example 9, cooked chicken, 0.2 g/kg, day 21, samples 1-3, monohydrochloride): 3.0 log cfu/g and 2.8 log cfu/g and 2.6 log cfu/g | aerobic total count, mean ([3]; Example 9, cooked chicken, 0.2 g/kg, day 28, mean of triplicate): 3.3 log cfu/g | aerobic total count ([3]; Example 9, cooked chicken, 0.2 g/kg, day 28, samples 1-3): 3.1 log cfu/g | aerobic total count ([3]; Example 9, cooked chicken, 0.2 g/kg, day 28, samples 1-3, monohydrochloride): 3.2 log cfu/g and 3.5 log cfu/g | aerobic total count, mean ([3]; Example 9, cooked chicken, 0.2 g/kg, day 35, mean of triplicate): 3.6 log cfu/g | aerobic total count ([3]; Example 9, cooked chicken, 0.2 g/kg, day 35, samples 1-3): 3.6 log cfu/g | aerobic total count ([3]; Example 9, cooked chicken, 0.2 g/kg, day 35, samples 1-3, monohydrochloride): 3.8 log cfu/g and 3.3 log cfu/g | aerobic total count, mean ([3]; Example 9, cooked chicken, 0.2 g/kg, day 42, mean of triplicate): 4.1 log cfu/g | aerobic total count ([3]; Example 9, cooked chicken, 0.2 g/kg, day 42, samples 1-3, monohydrochloride): 4.0 log cfu/g and 4.3 log cfu/g and 4.1 log cfu/g | aerobic total count, mean ([3]; Example 9, cooked chicken, 0.2 g/kg, day 49, mean of triplicate): 5.0 log cfu/g | aerobic total count ([3]; Example 9, cooked chicken, 0.2 g/kg, day 49, samples 1-3, monohydrochloride): 5.1 log cfu/g and 4.7 log cfu/g and 5.2 log cfu/g | aerobic total count, mean ([3]; Example 9, cooked chicken, 0.2 g/kg, day 56 (8 weeks), mean of triplicate): 5.4 log cfu/g | aerobic total count ([3]; Example 9, cooked chicken, 0.2 g/kg, day 56, samples 1-3, monohydrochloride): 5.3 log cfu/g and 5.2 log cfu/g and 5.5 log cfu/g | counts (aerobic total count) ([3]; Example 9, cooked chicken, 0.2 g/kg, for 5 weeks): below 4.0 log cfu/g | aerobic total count, mean ([3]; Example 14, cooked chicken, LAE 0.2 g/kg, day 0, mean of triplicate): 2.0 log cfu/g | aerobic total count, mean ([3]; Example 14, cooked chicken, LAE 0.2 g/kg, day 7, mean of triplicate): 2.0 log cfu/g | aerobic total count ([3]; Example 14, cooked chicken, LAE 0.2 g/kg, day 7, samples 1-3): 2.0 log cfu/g | aerobic total count, mean ([3]; Example 14, cooked chicken, LAE 0.2 g/kg, day 14, mean of triplicate): 2.3 log cfu/g | aerobic total count ([3]; Example 14, cooked chicken, LAE 0.2 g/kg, day 14, samples 1-3, monohydrochloride): 2.2 log cfu/g and 2.6 log cfu/g | aerobic total count, mean ([3]; Example 14, cooked chicken, LAE 0.2 g/kg, day 21, mean of triplicate): 2.9 log cfu/g | aerobic total count ([3]; Example 14, cooked chicken, LAE 0.2 g/kg, day 21, samples 1-3, monohydrochloride): 3.0 log cfu/g and 2.8 log cfu/g | aerobic total count, mean ([3]; Example 14, cooked chicken, LAE 0.2 g/kg, day 28, mean of triplicate): 3.4 log cfu/g
